Measured values: paper PMC5124248, “Antitumor activity of TY-011 against gastric cancer by inhibiting Aurora A, Aurora B and VEGFR2 kinases” (Journal of Experimental & Clinical Cancer Research : CR, 2016)
Read-outs that look alike come from different tables or passages of the source.

Legend:
Aurora B = target: T1, Aurora B (Homo sapiens, UniProt Q96GD4); experiment: HTRF KinEASE-STK kinase assay, Aurora B; format: biochemical
T1 construct: gift from Professor Jia Li, Shanghai Institute of Materia Medica/Chinese Academy of Sciences
T1 sequence (Q96GD4 whole entry): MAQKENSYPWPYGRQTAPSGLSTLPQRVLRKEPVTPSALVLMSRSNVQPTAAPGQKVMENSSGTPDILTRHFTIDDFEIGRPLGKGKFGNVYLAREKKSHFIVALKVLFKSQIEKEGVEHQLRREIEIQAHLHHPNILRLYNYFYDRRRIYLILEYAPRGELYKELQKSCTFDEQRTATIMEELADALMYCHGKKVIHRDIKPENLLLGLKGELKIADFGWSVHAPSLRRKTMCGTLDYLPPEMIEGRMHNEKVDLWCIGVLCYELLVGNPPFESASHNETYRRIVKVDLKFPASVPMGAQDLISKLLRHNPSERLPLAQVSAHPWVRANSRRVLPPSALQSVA
Excerpt: (§1) The inhibition of TY-011 on activity of Aurora A, Aurora B and VEGFR2 was characterized by HTRF® KinEASE™-STK/TK kit according to the manufacturer’s instructions (Cisbio Assays, Codolet, France). Aurora A and Aurora B were gifts from Professor Jia Li, Shanghai Institute of Materia Medica/Chinese Academy of Sciences. VEGFR2 was purchased from Carna Biosciences (Kobe, Japan).

VEGFR2 = target: T2, VEGFR2 (Homo sapiens, UniProt P35968); experiment: HTRF KinEASE-TK kinase assay, VEGFR2; format: biochemical; settings: mean ± SD of three independent experiments
T2 construct: purchased Carna Biosciences (Kobe, Japan)
T2 sequence (P35968 790-1356 limits assumed): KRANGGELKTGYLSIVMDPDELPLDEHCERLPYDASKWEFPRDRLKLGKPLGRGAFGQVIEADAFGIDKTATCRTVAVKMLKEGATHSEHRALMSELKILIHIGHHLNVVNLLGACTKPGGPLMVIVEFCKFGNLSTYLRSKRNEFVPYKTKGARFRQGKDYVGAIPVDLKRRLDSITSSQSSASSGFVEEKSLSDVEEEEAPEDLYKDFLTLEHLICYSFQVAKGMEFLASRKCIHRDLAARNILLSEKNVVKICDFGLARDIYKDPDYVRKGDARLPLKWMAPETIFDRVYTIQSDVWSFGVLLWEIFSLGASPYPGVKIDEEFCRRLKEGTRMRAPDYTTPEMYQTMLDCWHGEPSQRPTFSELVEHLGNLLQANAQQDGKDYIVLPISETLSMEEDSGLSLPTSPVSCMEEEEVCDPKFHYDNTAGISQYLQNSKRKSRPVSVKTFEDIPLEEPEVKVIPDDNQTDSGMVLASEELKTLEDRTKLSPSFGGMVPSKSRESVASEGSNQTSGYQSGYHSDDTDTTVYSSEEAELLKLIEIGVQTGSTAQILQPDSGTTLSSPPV
Excerpt: as §1

MKN-45 cells = experiment: CCK-8 cell proliferation assay, MKN-45; format: cell-based; settings: Homo sapiens; MKN-45, CCK-8, Fig. 3
Procedure: (§2) During the logarithmic growth phase, each cell line was seeded in a 96-well tissue culture plate (Thermo Fisher Scientific, Waltham, MA, USA) at a predetermined density in complete medium, attached overnight and treated with compound for the indicated time. The medium was discarded and replaced with 10% CCK-8 (Dojindo, Kumamoto, Japan) in complete medium, then incubated the plates for another 2 h. The OD450 was measured with SpectraMax M5 (Molecular Devices, CA, USA). A background absorbance of ODblank was subtracted from all wells. The survival rate was determined with following formula: Survival rate (%) = ODcompound/ODDMSO × 100%. The IC50 values were calculated by concentration − response curve fitting using the four parameter method.

MGC-803 cells [1] = experiment: CCK-8 cell proliferation assay, MGC-803; format: cell-based; settings: Homo sapiens
Procedure: as §2

HUVECs = experiment: VEGF- or FBS-induced HUVEC proliferation assay (CCK-8); format: cell-based, human; settings: for IC50: Homo sapiens, HUVEC
Procedure: as §2
In VEGF-induced HUVEC proliferation assay, HUVECs cells were seeded in a 96-well tissue culture plate at a predetermined density in HUVEC basic medium with 0.5% FBS. After the cells attached, cells were treated with different concentration of TY-011 in the presence of 50 ng/ml VEGF165 (R&D systems, Minneapolis, MN, USA) or 10% FBS. The CCK-8 assay as above was used for determination of cell viability.

MGC-803 cells [2] = experiment: Annexin V/PI apoptosis analysis, MGC-803; format: cell-based, human; settings: 48 h (7.8% control)
Procedure: Apoptosis was detected by FITC Annexin V Apoptosis Detection Kit I according to the manufacturer’s instructions (Dojindo, Kumamoto, Japan) to determine the phosphatidyl serine exposure. Apoptotic cells were quantified by a flow cytometer (Guava EasyCyte 6HT-2 L, Merck Millipore, Billerica, MA, USA) using the InCyte software. At least 10 000 cells were analyzed for each data point.

[3] = system: p-Histone H3 (S10), substrate of Aurora B; experiment: Cellular Histone H3 phosphorylation (western blot, immunofluorescence) in MGC-803 cells; format: cell-based, human
Procedure: The proteins of whole cell lysates were prepared in RIPA buffer containing protease and phosphatase inhibitors (Thermo Fisher Scientific, Waltham, MA, USA), and quantified by the bicinchoninic acid (BCA) method. Immunoblotting analysis of proteins in cell lysates was performed as previously described. Primary antibodies used were as follows: anti-Aurora A (#12100), anti-p-Aurora A (Thr288) (#3079), anti-Histone H3 (#4499), and anti-p-Histone H3 (Ser10) (#9701), and anti-cleaved caspase 3 (#9661) were purchased from Cell Signaling Technology (Danvers, MA, USA); anti-PARP-1 (#sc-8007) and anti-GAPDH (#sc-25778) were purchased from Santa Cruz (CA, USA).
Cells were cultured on glass slides coated with 0.05 mg/ml PDL (Sigma-aldrich, St. Louis, MO, USA) in the presence of TY-011 (0.8 μM) or equivalent amount of DMSO for 24 h. The cells were fixed in 4% paraformaldehyde at room temperature, then permeabilized with 0.15% Triton-X100 and blocked in 3% BSA in PBS. The primary antibodies were incubated with slides at 1:100 dilution in PBS containing 3% BSA in a wet chamber at 4 °C overnight. […] The images were captured with FCFM (fluorescence confocal microscope) (Olympus FV1000 IX81, Tokyo, Japan) under appropriate excitation and emission filters or phase-contrast microscope (Olympus IX73, Tokyo, Japan). […]

For `CCc1cc2c(cn1)C(c1ccccc1Cl)=Nc1c(n[nH]c1C)N2` [TY-011, 9-(2-chloro-phenyl)-6-ephyl-1-methyl-2,4-dihydro-2,3,4,7,10-pentaaza-benzo[f]azulene], which IC50 (Aurora B; Table S1, read-out: IC50 Aurora B) is on record?
Its IC50 is 90 nM.

What about the IC50 (Aurora B; mean ± SD of three independent experiments, read-out: Aurora B IC50) of the same compound?
The IC50 was 93.9 ± 33.7 nM.

And the IC50 (VEGFR2)?
Its IC50 is 103 ± 6.2 nM.

And the IC50 (MKN-45 cells)?
The IC50 was 130 ± 10 nM.

And the IC50 (MGC-803 cells [1]; MGC-803, Table S1, proliferation, read-out: IC50 MGC-803)?
The IC50 was 210 nM.

What about the IC50 (MGC-803 cells [1]; MGC-803, CCK-8, Fig. 3, read-out: IC50) of the same compound?
The IC50 was 190 ± 20 nM.

What about the “IC50 in cells treated with VEGF lower than in cells treated with FBS” value (HUVECs; 72 h) of the same compound?
The value was 13 fold.

What about the IC50 (HUVECs; 50 ng/ml VEGF165, 72 h, read-out: VEGF IC50) of the same compound?
The IC50 was 461 ± 61.8 nM.

What about the IC50 (HUVECs; 10% FBS, 72 h, read-out: FBS IC50) of the same compound?
Its IC50 is 6100 ± 16.4 nM.

And the apoptosis (MGC-803 cells [2]; MGC-803, 0.1 μM)?
Its apoptosis is 39.3%.

What about the apoptosis (MGC-803 cells [2]; MGC-803, 0.2 μM) of the same compound?
Its apoptosis is 78.2%.

And the apoptosis (MGC-803 cells [2]; MGC-803, 0.4 μM)?
Its apoptosis is 86.1%.

What about the “p-Histone H3 (S10), immunofluorescence” value ([3]; MGC-803, 0.8 μM, 24 h) of the same compound?
Its value is “decreased sharply”.

What about the “phosphorylation of Histone H3 (S10), western blot” value ([3]; MGC-803 synchronized with nocodazole (100 nM) 16 h, then various concentrations for 24 h) of the same compound?
The value was “strongly inhibited”.
